Values of other authors in patent US20230405068A1, “RADIATION-INDUCED FIBROSIS TREATMENT” (Handelsselskabet af 20.10.2020 ApS, priority 2020, published 2023).
Read-outs that look alike come from different tables or passages of the source.

What was measured:
[1] = test system: radiation-induced dermatitis; details: rats
[2] = test system: radiation-induced dermatitis; details: mice; applied topically
[3] = test system: radiation-induced injury
[4] = test system: radiation-induced skin fibrosis; details: intramuscular injection; pigs
[5] = test system: radiation-induced skin fibrosis; details: intramuscular injection; humans

Row | Molecule | mitochondrial lipid peroxidation [3] | protection from radiation-induced injury [3] | other results
1 | CC(=O)N[C@@H](CS)C(=O)O [N-acetylcysteine] |  |  | protection from radiation-induced dermatitis [1]: significantly protects
2 | CC1(C)CC[C@]2(NC(=O)C(C)(F)F)CC[C@]3(C)[C@H](C(=O)C=C4[C@@]5(C)C=C(C#N)C(=O)C(C)(C)[C@@H]5CC[C@]43C)[C@@H]2C1 [RTA 408, omaveloxolone] |  |  | protection from radiation-induced dermatitis [2]: allegedly protecting
3 | NCCCNCCSP(=O)(O)O [amifostine] | limit mitochondrial lipid peroxidation | protect from radiation-induced injury | 
4 | N[C@@H](CCC(=O)N[C@@H](CS)C(=O)NCC(=O)O)C(=O)O [glutathione] | limit mitochondrial lipid peroxidation | protect from radiation-induced injury | 
5 | Sod1 (Cu—Zn) protein: Sod1 (Cu—Zn) protein given by intramuscular injection |  |  | protection from radiation-induced skin fibrosis [4]: protected; protection from radiation-induced skin fibrosis [5]: protected
